The values that follow come from PubChem BioAssay AID248 (DTP/NCI, 2004).

“And” between values parts separate entries of the source, which are not always exact repeats. Equal values may be shown once. Inconclusive results and toxic doses are left out.

The test system of the assay is L1210 leukemia ip in BDF1 mice, survival T/C. In words: NCI In Vivo Anticancer Drug Screen. Data for tumor model L1210 Leukemia (intraperitoneal) in B6D2F1 (BDF1) mice. Particulars: endpoint: mean survival time, higher = longer survival. The procedure, abridged:
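Tumor was transplanted into mice, which were then dosed with test compound or vehicle alone. Survival was recorded for each group, and the treated figure was expressed relative to the control figure.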

The mark [1] stands for this setting: dose: 100.0 mg/kg/injection, schedule: Q01DX001 (ip), vehicle: saline.
The mark [2] stands for this setting: dose: 200.0 mg/kg/injection, schedule: Q01DX001 (ip), vehicle: saline.
[3] abbreviates: dose: 400.0 mg/kg/injection, schedule: Q01DX001 (ip), vehicle: saline.
Setting [4] is: dose: 100.0 mg/kg/injection, schedule: Q04DX003 (ip), vehicle: saline.
The mark [5] stands for this setting: dose: 200.0 mg/kg/injection, schedule: Q04DX003 (ip), vehicle: saline.
The mark [6] stands for this setting: dose: 400.0 mg/kg/injection, schedule: Q04DX003 (ip), vehicle: saline.
Setting [7] is: dose: 100.0 mg/kg/injection, schedule: Q01DX001 (ip), vehicle: Klucel (hydroxypropylcellulose) (HPC).
[8] abbreviates: dose: 200.0 mg/kg/injection, schedule: Q01DX001 (ip), vehicle: Klucel (hydroxypropylcellulose) (HPC).
The mark [9] stands for this setting: dose: 400.0 mg/kg/injection, schedule: Q01DX001 (ip), vehicle: Klucel (hydroxypropylcellulose) (HPC).
Where [10] appears, read: dose: 100.0 mg/kg/injection, schedule: Q01DX009 (ip), vehicle: saline.
The mark [11] stands for this setting: dose: 200.0 mg/kg/injection, schedule: Q01DX009 (ip), vehicle: saline.
The mark [12] stands for this setting: dose: 400.0 mg/kg/injection, schedule: Q01DX009 (ip), vehicle: saline.
[13] abbreviates: dose: 100.0 mg/kg/injection, schedule: Q01DX009 (ip), vehicle: saline with Tween-80.
Setting [14] is: dose: 200.0 mg/kg/injection, schedule: Q01DX009 (ip), vehicle: saline with Tween-80.

As to `OCC1OC(n2cnc3c(=S)nc[nH]c32)CC1O` (stereo unspecified), the T/C is 103 % of control (dose: 8.0 mg/kg/injection, schedule: Q01DX015 (ip), vehicle: saline); 108 % of control (dose: 16.0 mg/kg/injection, schedule: Q01DX015 (ip), vehicle: saline); 115 % of control (dose: 32.0 mg/kg/injection, schedule: Q01DX015 (ip), vehicle: saline); 104 % of control (dose: 50.0 mg/kg/injection, schedule: Q01DX001 (ip), vehicle: saline); 122 % of control (dose: 64.0 mg/kg/injection, schedule: Q01DX015 (ip), vehicle: saline); 106 % of control under setting [1]. The T/C is 113 % of control (dose: 178.0 mg/kg/injection, schedule: Q01DX001 (ip), vehicle: saline); 156 % of control (dose: 180.0 mg/kg/injection, schedule: Q01DX015 (ip), vehicle: saline); 115 % of control under setting [2]; 108 % of control (dose: 267.0 mg/kg/injection, schedule: Q01DX001 (ip), vehicle: saline); 154 % of control and 156 % of control (dose: 300.0 mg/kg/injection, schedule: Q01DX015 (ip), vehicle: saline); 121 % of control under setting [3]. Further, the T/C (dose: 600.0 mg/kg/injection, schedule: Q01DX015 (ip), vehicle: saline) was 163 % of control.

Consider `N#CC(C#N)=Cc1ccsc1`, for which the T/C runs as follows: (dose: 6.25 mg/kg/injection, schedule: Q01DX009 (ip), vehicle: Klucel (hydroxypropylcellulose) (HPC)) 102 % of control; (dose: 12.5 mg/kg/injection, schedule: Q01DX009 (ip), vehicle: Klucel (hydroxypropylcellulose) (HPC)) 94 % of control; (dose: 12.5 mg/kg/injection, schedule: Q04DX003 (ip), vehicle: Klucel (hydroxypropylcellulose) (HPC)) 102 % of control; (dose: 25.0 mg/kg/injection, schedule: Q01DX009 (ip), vehicle: Klucel (hydroxypropylcellulose) (HPC)) 100 % of control; (dose: 25.0 mg/kg/injection, schedule: Q04DX003 (ip), vehicle: Klucel (hydroxypropylcellulose) (HPC)) 96 % of control.

With `CCOC(=O)CC(=O)NCCc1cccc(OC)c1OC`, the T/C is 93 % of control under setting [4], 90 % of control under setting [5] and 93 % of control under setting [6].

With `NC(CSSc1ccccc1)=NCC12CC3CC(CC(C3)C1)C2`, the T/C reads like this: (dose: 10.0 mg/kg/injection, schedule: Q01DX001 (ip), vehicle: carboxymethylcellulose (CMC)) 96 % of control; (dose: 20.0 mg/kg/injection, schedule: Q01DX001 (ip), vehicle: carboxymethylcellulose (CMC)) 98 % of control.

Turning to `Oc1ccc(-c2nc3ccccc3s2)cc1`, the T/C was 105 % of control under setting [7], 113 % of control under setting [8] and 111 % of control under setting [9].

With `O=C(NCCCl)NC1CCSc2ccccc21` (stereo unspecified), the T/C by setting is: (dose: 100.0 mg/kg/injection, schedule: Q04DX003 (ip), vehicle: saline with Tween-80) 101 % of control; (dose: 200.0 mg/kg/injection, schedule: Q04DX003 (ip), vehicle: saline with Tween-80) 95 % of control.

As to `Nc1ccc(OCCNC(=O)Nc2ccc(S(=O)(=O)F)cc2)c(Cl)c1`, the T/C reads like this: (dose: 75.0 mg/kg/injection, schedule: Q01DX001 (ip), vehicle: other) 96 % of control; (dose: 150.0 mg/kg/injection, schedule: Q01DX001 (ip), vehicle: other) 105 % of control; (dose: 300.0 mg/kg/injection, schedule: Q01DX001 (ip), vehicle: other) 98 % of control.

Regarding `CCCC(CC)C(C(=O)OCC)C1=NC(C)(C)CC(C)O1` (stereo unspecified), the T/C is 98 % of control (dose: 100.0 mg/kg/injection, schedule: Q01DX009 (ip), vehicle: saline sonified); 104 % of control (dose: 200.0 mg/kg/injection, schedule: Q01DX009 (ip), vehicle: saline sonified); 93 % of control (dose: 400.0 mg/kg/injection, schedule: Q01DX009 (ip), vehicle: saline sonified).

`CCN(CC)CCCC(C)NC(=O)c1ccc(N(C)C)nc1` (stereo unspecified): the T/C is, setting by setting: (dose: 25.0 mg/kg/injection, schedule: Q01DX009 (ip), vehicle: water) 97 % of control; (dose: 50.0 mg/kg/injection, schedule: Q01DX009 (ip), vehicle: water) 104 % of control; (dose: 100.0 mg/kg/injection, schedule: Q01DX009 (ip), vehicle: water) 101 % of control; (dose: 200.0 mg/kg/injection, schedule: Q01DX009 (ip), vehicle: water) 104 % of control; (dose: 400.0 mg/kg/injection, schedule: Q01DX009 (ip), vehicle: water) 101 % of control.

As to `O=C(C=Nc1ccc([N+](=O)[O-])cc1)c1c2ccccc2cc2ccccc12`, the T/C reads like this: under setting [7], 107 % of control; under setting [8], 102 % of control; under setting [9], 106 % of control.

As to `C=C(C)C(=NC)Nc1ccc(Cl)c(Cl)c1`, the T/C (dose: 222.0 mg/kg/injection, schedule: Q01DX Z (ip), vehicle: methylcellulose (MC)) is 98 % of control; the T/C (dose: 333.0 mg/kg/injection, schedule: Q01DX Z (ip), vehicle: methylcellulose (MC)) was 91 % of control; the T/C (dose: 500.0 mg/kg/injection, schedule: Q01DX Z (ip), vehicle: methylcellulose (MC)) was 93 % of control.

For the compound `COC(=O)c1ccccc1Cn1ccnc1`, the T/C is, setting by setting: under setting [1], 108 % of control; under setting [10], 102 % of control and 92 % of control; (dose: 100.0 mg/kg/injection, schedule: Q04DX002 (ip), vehicle: saline) 96 % of control and 103 % of control; under setting [4], 115 % of control; under setting [2], 101 % of control; under setting [11], 94 % of control and 97 % of control. Besides, the T/C was 103 % of control and 105 % of control (dose: 200.0 mg/kg/injection, schedule: Q04DX002 (ip), vehicle: saline); 101 % of control under setting [5]; 97 % of control under setting [3]; 100 % of control (dose: 400.0 mg/kg/injection, schedule: Q04DX002 (ip), vehicle: saline).

On to `O=C1c2cc(O)c(O)cc2O[C@H](c2ccc(O)c(O)c2)[C@H]1O`, for which the T/C reads like this: under setting [4], 106 % of control; under setting [5], 100 % of control; under setting [6], 104 % of control.

Take `CN1CCC(CNC(=O)CCCCCCCCC(=O)NCC2(c3ccccc3)CCN(C)CC2)(c2ccccc2)CC1`: the T/C runs as follows: (dose: 0.63 mg/kg/injection, schedule: Q01DX Z (ip), vehicle: saline) 89 % of control; (dose: 1.25 mg/kg/injection, schedule: Q01DX Z (ip), vehicle: saline) 89 % of control; (dose: 2.5 mg/kg/injection, schedule: Q01DX Z (ip), vehicle: saline) 88 % of control; (dose: 5.0 mg/kg/injection, schedule: Q01DX Z (ip), vehicle: saline) 86 % of control; (dose: 5.0 mg/kg/injection, schedule: Q04DX003 (ip), vehicle: saline with Tween-80) 102 % of control.

On to `Nc1ccc(CS(=O)(=O)O)cc1`, for which the T/C was 112 % of control under setting [10], 101 % of control under setting [11] and 101 % of control under setting [12].

Turning to `CCOCC(=O)CC(C)(C)C`, the T/C is, setting by setting: (dose: 50.0 mg/kg/injection, schedule: Q01DX009 (ip), vehicle: saline with Tween-80) 92 % of control; under setting [13], 92 % of control; under setting [14], 103 % of control.

As to `O=C(COc1ccc(Cl)cc1)c1ccccc1`, the T/C runs as follows: under setting [13], 99 % of control; under setting [14], 87 % of control; (dose: 400.0 mg/kg/injection, schedule: Q01DX009 (ip), vehicle: saline with Tween-80) 100 % of control.

In the case of `Cc1cc(Cl)cc(C)c1OC(=O)Nc1ccccc1C(F)(F)F`, the T/C reads like this: under setting [10], 98 % of control; under setting [11], 91 % of control; under setting [12], 112 % of control.

Turning to `CCC1c2ccc3cc(OC)ccc3c2C(=O)CC1C(=O)O` (stereo unspecified), the T/C by setting is: (dose: 100.0 mg/kg/injection, schedule: Q01DX009 (sc), vehicle: steriod suspending solution) 102 % of control; (dose: 100.0 mg/kg/injection, schedule: Q04DX003 (sc), vehicle: steriod suspending solution) 104 % of control; (dose: 200.0 mg/kg/injection, schedule: Q01DX009 (sc), vehicle: steriod suspending solution) 96 % of control; (dose: 200.0 mg/kg/injection, schedule: Q04DX003 (sc), vehicle: steriod suspending solution) 98 % of control; (dose: 400.0 mg/kg/injection, schedule: Q01DX009 (sc), vehicle: steriod suspending solution) 106 % of control; (dose: 400.0 mg/kg/injection, schedule: Q04DX003 (sc), vehicle: steriod suspending solution) 105 % of control.
